Laboratory results published in patent US10806744B2, “Edible composition” (Conopco, Inc., priority 2015, dated 2020).
Several values for one entry are separate records, joined by “and”; a condition that tells them apart may be missing. Equal values may be shown once. One block for each compound: values may come before it.

Legend:
[1] = system: glucose transport across differentiated Caco-2 cell monolayers; assay: Glucose transport cell model: 5 mM D-glucose 15 minutes, then 25 mM for 45 minutes, cumulative glucose transport; type: cell-based, human; design: unit not given here; settings: duplicate
Method: Caco-2 cells were cultured and routinely passaged as described in Example 1.
After the last incubation, all of the retained PBS(+) from each step (i.e. at 15, 30, 45 and 60 minutes) was assayed for glucose levels as described in Example 1, and the total cumulative glucose transport calculated. The localised changes in luminal glucose concentrations described and illustrated in example 1 are mimicked in-vitro through an initial short incubation of differentiated Caco-2 cells with a low level of D-glucose (5 mM for 15 minutes) immediately followed by a sustained incubation with a high level of D-glucose (final concentration of 25 mM for 45 minutes).
In the above table, every test pairing of a homisoflavonoid (HIF) and a flavonoid monoglucoside (FM) has 5 values reported: • 1. No Compound (NC)+NC • 2.
Synergy is achieved when the inhibition caused by the combination of HIF and FM is greater than the sum of the inhibition due to HIF alone added to the inhibition due to FM alone.

GLUT2 = target: T1, GLUT2 (Homo sapiens, UniProt P11168); assay: Glucose transport inhibitor cell screening assay, 25 mM D-glucose for 30 minutes; settings: for inhibition at 300 µM: Caco-2, read-out: % Glucose transport inhibiton 25 mM; for identified as inhibitors of GLUT2: Caco-2 cell assay
T1 sequence (P11168 1-524): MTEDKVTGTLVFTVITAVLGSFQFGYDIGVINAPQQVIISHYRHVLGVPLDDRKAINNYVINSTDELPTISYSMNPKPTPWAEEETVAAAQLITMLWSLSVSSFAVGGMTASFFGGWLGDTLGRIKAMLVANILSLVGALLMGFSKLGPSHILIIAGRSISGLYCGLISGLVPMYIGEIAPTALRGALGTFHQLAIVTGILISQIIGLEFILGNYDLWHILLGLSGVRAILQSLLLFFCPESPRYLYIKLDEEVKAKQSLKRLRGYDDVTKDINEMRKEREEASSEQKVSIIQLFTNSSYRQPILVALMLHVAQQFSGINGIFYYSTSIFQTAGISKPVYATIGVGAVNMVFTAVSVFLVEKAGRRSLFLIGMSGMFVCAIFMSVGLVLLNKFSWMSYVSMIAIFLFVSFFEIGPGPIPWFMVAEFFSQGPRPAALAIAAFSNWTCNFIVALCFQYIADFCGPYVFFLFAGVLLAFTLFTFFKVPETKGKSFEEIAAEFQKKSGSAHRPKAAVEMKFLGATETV
Method: (§1) Human epithelial colorectal adenocarcinoma (Caco-2) cells were obtained from the American Type Culture Collection (ATCC) and cultured in Growth Medium consisting of Dulbecco's modified Eagle's medium (containing Glutamax-1, 4.5 g/L D-glucose and 25 mM 4-(2-hydroxyethyl)-1-piperazine ethanesulphonic acid (Hepes) (Invitrogen)), 10% foetal bovine serum (Sigma), 1% non-essential amino acids (Invitrogen) and 1 mM sodium pyruvate (Sigma)). The cells were routinely passaged at approximately 80% confluence using TrypLE™ Express Stable Trypsin-Like Enzyme (Invitrogen) to detach the cells, and seeded at approximately 114 cells per mm^2 in fresh tissue culture flasks. Only cells between the passage numbers 45 and 49 were used for experiments.
(§2) Corning® HTS Transwell® 96 well permeable insert supports (Sigma) were collagen coated with 40 μl of 50 μg/ml rat tail collagen type I (BD Biosciences) in 0.02 M acetic acid for one hour at room temperature under sterile conditions. The inserts were washed twice in phosphate buffered saline (PBS (Invitrogen)) and the Caco-2 cells seeded into the inserts at 1.0×10^6 cell/ml (75 μl per insert) in Growth Medium and 30 ml of Growth Medium added to the feeder plate below. The cells were left to attach to the collagen matrix and form monolayers over 48 hours at 37° C., 5% CO2. Both inserts and feeder plate were washed in PBS and the cells incubated with BD Entero-STIM™ Enterocyte Differentiation Medium containing MITO+™ Serum Extender solution (both BD Biosciences), 75 μl per insert and 30 ml in the feeder plate, for a further 48 hours at 37° C., 5% CO2.
(§3) Differentiated cell monolayers were washed gently in Dulbecco's Phosphate Buffered Saline containing CaCl2 and MgCl2 (PBS(+) (Invitrogen)) and the inserts transferred to a new Corning® HTS Transwell®-96 well receiver plate (Sigma). The cells were incubated with fresh PBS(+) (75 μl per insert and 225 μl per well) for 60 minutes at 37° C., 5% CO2. The PBS(+) was gently aspirated and replaced with 75 μl per insert of either 5 mM D-glucose (Sigma)±test compound or 25 mM D-glucose±test compound in triplicate and 225 μl per well of PBS(+) quickly added to each well. The 5 mM glucose wells and the 25 mM glucose wells were incubated at 37° C., 5% CO2 for 15 minutes and 30 minutes, respectively. […] The cell inserts were transferred to a new receiver plate, the supernatant gently aspirated from the cells and replaced with 100 μl of 100 μM of Lucifer Yellow (Sigma) solution to confirm the integrity of the monolayers. 225 μl of PBS(+) was added to each well and incubated at 37° C., 5% CO2 for 1 hour. The cell inserts were then discarded and the permeability of the membranes to Lucifer Yellow checked by measuring the fluorescence of the samples at 485 nm (excitation) and 530 nm (emission) on a Spectramax Gemini EM fluorescence microplate reader.
(§4) The amount of glucose transported across the cell monolayers was measured using a glucose assay based on Invitrogen's Amplex Red Glucose/Glucose oxidase Assay Kit. Briefly, 50 μl of each test sample was transferred to a black sided/clear bottom 96-well plate (Greiner Bio-One) to which 100 μl of reaction buffer (0.5 μl 10 mM Ampliflu Red, 1 μl 10 U/ml Horse Radish peroxidase, 1 μl 100 U/ml glucose oxidase and 97.5 μl PBS (all Sigma)) was added. After 10 minutes incubation at room temperature, the fluorescence of the samples was measured at 530 nm (excitation) and 590 nm (emission) on a Spectramax Gemini EM fluorescence microplate reader and the glucose concentration extrapolated from a standard curve.
(§5) At higher D-glucose concentrations, the SGLT1 transporter becomes saturated and consequently the majority of glucose transport across the monolayer is driven by the low affinity, high capacity GLUT2 transporter that is targeted to the apical membrane only following an initial SGLT1-dependent transport of glucose.

SGLT1 [2] = target: T2, SGLT1 (Homo sapiens, UniProt P13866); assay: Glucose transport inhibitor cell screening assay, 5 mM D-glucose for 15 minutes; settings: Caco-2, read-out: % Glucose transport inhibiton 5 mM
T2 sequence (P13866 1-664): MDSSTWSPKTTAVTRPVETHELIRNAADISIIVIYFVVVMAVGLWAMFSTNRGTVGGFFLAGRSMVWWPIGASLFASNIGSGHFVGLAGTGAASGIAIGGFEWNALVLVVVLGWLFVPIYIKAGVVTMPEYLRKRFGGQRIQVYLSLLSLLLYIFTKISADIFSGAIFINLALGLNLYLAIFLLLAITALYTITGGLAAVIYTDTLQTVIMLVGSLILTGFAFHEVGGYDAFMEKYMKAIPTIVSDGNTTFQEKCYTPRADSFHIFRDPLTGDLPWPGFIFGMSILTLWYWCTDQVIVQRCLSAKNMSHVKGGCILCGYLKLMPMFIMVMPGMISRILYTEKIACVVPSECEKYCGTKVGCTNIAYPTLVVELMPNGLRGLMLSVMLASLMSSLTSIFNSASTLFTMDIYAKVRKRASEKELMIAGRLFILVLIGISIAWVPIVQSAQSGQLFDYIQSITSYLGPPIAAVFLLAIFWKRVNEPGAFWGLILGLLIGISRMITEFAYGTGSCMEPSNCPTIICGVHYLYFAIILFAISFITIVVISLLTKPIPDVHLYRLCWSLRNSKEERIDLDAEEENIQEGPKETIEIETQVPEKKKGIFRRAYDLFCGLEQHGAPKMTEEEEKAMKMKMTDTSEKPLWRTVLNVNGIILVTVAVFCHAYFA
Method: as §1, §2, §3, §4, §5

SGLT1 and GLUT2 = assay: Assigned class of transporter inhibited, from Caco-2 screening at 5 mM and 25 mM D-glucose; type: cell-based, human; settings: from % inhibition at 5 mM and 25 mM D-glucose; compound 300 μM
SGLT1 [3] = target: T2, SGLT1; settings: as disclosed in Table 1 of WO 2014/086632; cited from earlier work
[4] = homoisoflavonoid 2.5 uM alone, added at 25 mM glucose step (NC at 5 mM)
[5] = homoisoflavonoid 5 uM alone, added at 25 mM glucose step (NC at 5 mM)
[6] = flavonoid monoglucoside 300 uM alone, added at 5 mM glucose step only (NC at 25 mM)
[7] = flavonoid monoglucoside 300 uM alone, added at 25 mM glucose step only (NC at 5 mM)

inhibition at 300 µM (GLUT2): 66.6 ± 5.21%
identified as inhibitors of GLUT2 (GLUT2): inhibitors of GLUT2
inhibition at 300 µM (SGLT1 [2]): 90.7 ± 1.4%
Compound: Cc1c(O)cc2c(c1O)C(=O)C(Cc1ccc(O)cc1)CO2 (centres unmarked) [EA1, 5,7-dihydroxy-3-(4′-hydroxybenzyl)-6-methylchroman-4-one]
Cumulative (AVE) glucose transport [1, 4]: 339.2
Cumulative (AVE) glucose transport [1, 5]: 284.6
Cumulative (AVE) glucose transport ([1]; homoisoflavonoid 10 uM alone, added at 25 mM glucose step (NC at 5 mM)): 301.50 and 232.03
Class (assigned class of transporter inhibited) (SGLT1 and GLUT2): GLUT2 (GLUT2 inhibitors having ≥20% inhibition at both 5 mM and 25 mM D-glucose levels)

inhibition at 300 µM (GLUT2): 27.7 ± 3.7%
identified as inhibitors of GLUT2 (GLUT2): inhibitors of GLUT2
inhibition at 300 µM (SGLT1 [2]): 39.3 ± 2.17%
Compound: Cc1c(O)c(C)c2c(c1O)C(=O)[C@H](Cc1ccc3c(c1)OCO3)CO2 [MOA, methylophiopogonanone A]
Cumulative (AVE) glucose transport [1, 5]: 231.69
Class (assigned class of transporter inhibited) (SGLT1 and GLUT2): GLUT2 (GLUT2 inhibitors having ≥20% inhibition at both 5 mM and 25 mM D-glucose levels)

inhibition at 300 µM (GLUT2): 14.3 ± 0.84%
Compound: O=C(CCc1ccc(O)cc1)c1c(O)cc(O)cc1O[C@@H]1O[C@H](CO)[C@@H](O)[C@H](O)[C@H]1O [Phloridzin, reference compound]

Compound: O=C1CC(c2ccc(O)cc2)Oc2cc(O[C@@H]3O[C@H](CO)[C@@H](O)[C@H](O)[C@H]3O)cc(O)c21 (some centres unmarked) [Naringenin-7-O-glucoside]
Cumulative (AVE) glucose transport [1, 6]: 215.32
Cumulative (AVE) glucose transport [1, 7]: 236.65
SGLT1 inhibitory activity (SGLT1 [3]): SGLT1 inhibitors

Compound: O=c1c(-c2ccc(O)cc2)coc2c([C@@H]3O[C@H](CO)[C@@H](O)[C@H](O)[C@H]3O)c(O)ccc12 [daidzein-8-C-glucoside]
SGLT1 inhibitory activity (SGLT1 [3]): SGLT1 inhibitors

Compound: C[C@@H]1O[C@@H](OC[C@H]2O[C@@H](Oc3cc4c(O)cc(O)cc4[o+]c3-c3ccc(O)c(O)c3)[C@H](O)[C@@H](O)[C@@H]2O)[C@H](O)[C@H](O)[C@H]1O [cyanidin-3-rutinoside]
SGLT1 inhibitory activity (SGLT1 [3]): absence of SGLT1 inhibitory activity

Compound: O=c1cc(-c2ccc(O)c(O)c2)oc2cc(O[C@@H]3O[C@H](CO)[C@@H](O)[C@H](O)[C@H]3O)cc(O)c12 [Luteolin-7-glucoside]
Cumulative (AVE) glucose transport ([1]; flavonoid monoglucoside 300 uM alone, added at 5 mM glucose step only (NC at 25 mM), listed as L7G): 220.63 and 301.4
Cumulative (AVE) glucose transport ([1]; flavonoid monoglucoside 300 uM alone, added at 25 mM glucose step only (NC at 5 mM), listed as L7G): 256.73 and 281.9
SGLT1 inhibitory activity (SGLT1 [3]): SGLT1 inhibitors

Compound: O=c1c(O)c(-c2ccc(O)cc2)oc2cc(O[C@@H]3O[C@H](CO)[C@@H](O)[C@H](O)[C@H]3O)cc(O)c12 [kaempferol-7-glucoside]
SGLT1 inhibitory activity (SGLT1 [3]): SGLT1 inhibitors

Compound: O=c1c(O[C@@H]2O[C@H](CO)[C@@H](O)[C@H](O)[C@H]2O)c(-c2ccc(O[C@@H]3O[C@H](CO)[C@@H](O)[C@H](O)[C@H]3O)c(O)c2)oc2cc(O)cc(O)c12 [quercetin-3,4′-diglucoside]
SGLT1 inhibitory activity (SGLT1 [3]): destroys this inhibitory action

Compound: O=C1CC(c2ccc(O)c(O)c2)Oc2cc(O[C@@H]3O[C@H](CO)[C@@H](O)[C@H](O)[C@H]3O)cc(O)c21 (some centres unmarked) [eriodictiol-7-glucoside]
SGLT1 inhibitory activity (SGLT1 [3]): SGLT1 inhibitors

Compound: OC[C@H]1O[C@@H](Oc2cc3c(O)cc(O)cc3[o+]c2-c2ccc(O)cc2)[C@H](O)[C@@H](O)[C@@H]1O [pelargonidin-3-glucoside]
SGLT1 inhibitory activity (SGLT1 [3]): SGLT1 inhibitors

Compound: O=c1c(O[C@@H]2O[C@H](CO)[C@@H](O)[C@H](O)[C@H]2O)c(-c2ccc(O)cc2)oc2cc(O)cc(O)c12 [Kaempferol-3-glucoside]
Cumulative (AVE) glucose transport ([1]; flavonoid monoglucoside 150 uM alone, added at 5 mM glucose step only (NC at 25 mM)): 297.72
Cumulative (AVE) glucose transport ([1]; flavonoid monoglucoside 150 uM alone, added at 25 mM glucose step only (NC at 5 mM)): 290.49
SGLT1 inhibitory activity (SGLT1 [3]): SGLT1 inhibitors

Compound: O=c1c(-c2ccc(O)cc2)coc2cc(O[C@@H]3O[C@H](CO)[C@@H](O)[C@H](O)[C@H]3O)ccc12 [daidzein-7-glucoside]
SGLT1 inhibitory activity (SGLT1 [3]): SGLT1 inhibitors

Compound: COc1cc(-c2[o+]c3cc(O)cc(O)c3cc2O[C@@H]2O[C@H](CO)[C@@H](O)[C@H](O)[C@H]2O)cc(OC)c1O [malvidin-3-O-glucoside]
SGLT1 inhibitory activity (SGLT1 [3]): SGLT1 inhibitors

inhibition at 300 µM (GLUT2): 30.6 ± 3.2%
identified as inhibitors of GLUT2 (GLUT2): inhibitors of GLUT2
inhibition at 300 µM (SGLT1 [2]): 46.2 ± 2.04%
Compound: COc1ccc(C[C@@H]2COc3c(C)c(O)c(C)c(O)c3C2=O)cc1 [MOB, methylophiopogonanone B]
Cumulative (AVE) glucose transport [1, 5]: 200.59
Class (assigned class of transporter inhibited) (SGLT1 and GLUT2): GLUT2 (GLUT2 inhibitors having ≥20% inhibition at both 5 mM and 25 mM D-glucose levels)

Compound: O=c1cc(-c2ccc(O)cc2)oc2cc(OC3O[C@H](CO)[C@@H](O)[C@H](O)[C@H]3O)cc(O)c12 (some centres unmarked) [apigenin-7-glucoside]
SGLT1 inhibitory activity (SGLT1 [3]): SGLT1 inhibitors

Compound: COc1cc(-c2[o+]c3cc(O)cc(O)c3cc2O[C@@H]2O[C@H](CO)[C@H](O)[C@H](O)[C@H]2O)cc(OC)c1O [malvidin-3-O-galactoside]
SGLT1 inhibitory activity (SGLT1 [3]): absence of SGLT1 inhibitory activity

Compound: OC[C@H]1O[C@@H](Oc2ccc(O)cc2)[C@H](O)[C@@H](O)[C@@H]1O [arbutin]
SGLT1 inhibitory activity (SGLT1 [3]): lack of SGLT1 inhibitory activity

Compound: OC[C@H]1O[C@@H](Oc2cc3c(O)cc(O)cc3[o+]c2-c2cc(O)c(O)c(O)c2)[C@H](O)[C@@H](O)[C@@H]1O [delphinidin-3-glucoside]
SGLT1 inhibitory activity (SGLT1 [3]): SGLT1 inhibitors

inhibition at 300 µM (GLUT2): 67.4 ± 5.87%
identified as inhibitors of GLUT2 (GLUT2): inhibitors of GLUT2
inhibition at 300 µM (SGLT1 [2]): 91.15 ± 0.46%
Compound: Cc1c(O)c(C)c2c(c1O)C(=O)C(Cc1ccc(O)cc1)CO2 (centres unmarked) [EA3, 5,7-dihydroxy-3-(4′-hydroxybenzyl)-6,8-dimethylchroman-4-one]
Cumulative (AVE) glucose transport [1, 4]: 291.33
Class (assigned class of transporter inhibited) (SGLT1 and GLUT2): GLUT2 (GLUT2 inhibitors having ≥20% inhibition at both 5 mM and 25 mM D-glucose levels)

Compound: O=c1cc(-c2ccc(O)cc2)oc2c([C@@H]3O[C@H](CO)[C@@H](O)[C@H](O)[C@H]3O)c(O)cc(O)c12 [Apigenin-8-C-glucoside]
Cumulative (AVE) glucose transport [1, 6]: 291.89
Cumulative (AVE) glucose transport [1, 7]: 287.58
SGLT1 inhibitory activity (SGLT1 [3]): SGLT1 inhibitors

Compound: O=c1c(O)c(-c2ccc(O[C@@H]3O[C@H](CO)[C@@H](O)[C@H](O)[C@H]3O)c(O)c2)oc2cc(O)cc(O)c12 [quercetin-4-glucoside]
SGLT1 inhibitory activity (SGLT1 [3]): SGLT1 inhibitors

Compound: OC[C@H]1O[C@@H](Oc2cc3c(O)cc(O)cc3[o+]c2-c2ccc(O)c(O)c2)[C@H](O)[C@@H](O)[C@@H]1O [cyanidin-3-glucoside]
SGLT1 inhibitory activity (SGLT1 [3]): SGLT1 inhibitors

Compound: O=c1c(O[C@@H]2O[C@H](CO)[C@@H](O)[C@H](O)[C@H]2O)c(-c2ccc(O)c(O)c2)oc2cc(O)cc(O)c12 [quercetin-3-glucoside]
SGLT1 inhibitory activity (SGLT1 [3]): SGLT1 inhibitors
